Results from patent publication US10602743B2, “Method of inducing drought/salt tolerance using Bacillus megaterium” (Marrone Bio Innovations, Inc., priority 2012, dated 2020).
Structures can show the parent of a compound that is named as a salt. Where two headings read alike, the source gives them in different places.

Tested on: Bacillus megaterium strain H491
Experiment: Chemical sensitivity, Biolog Phenotypic Microarray
Type: cell-based
[1] = Biolog Phenotypic Microarray, 25° C.

Compound | H491 susceptible to compound [1] | H491 susceptible to compound
CC(C)NCC(O)COc1cccc2ccccc12 (racemic) [D,L-Propanolol] | susceptible | –
O=C(O)CCCCC1CCSS1 (racemic) [D,L-Thioctic acid] | susceptible | –
O.c1cnc2c(c1)ccc1cccnc12 [1,10-Phenanthroline Monohydrate] | susceptible | –
On1ccccc1=S [1-Hydroxypyridine-2-thione] | susceptible | –
c1ccc(-c2ccccn2)nc1 [2,2′-Dipyridyl] | susceptible | –
CC(C)c1nc2nc(N)nc(N)c2nc1C(C)C [2,4-Diamino-6,7-diisopropylpteridine] | susceptible | –
O=[N+]([O-])c1ccc(O)c([N+](=O)[O-])c1 [2,4-Dintrophenol] | susceptible | –
O=[N+]([O-])c1ncc[nH]1 [2-Nitroimidazole] | susceptible | –
Oc1ccccc1-c1ccccc1 [2-Phenylphenol] | susceptible | –
O=C(O)c1cc([N+](=O)[O-])cc([N+](=O)[O-])c1 [3,5-Dinitrobenzoic acid] | susceptible | –
Nc1nc[nH]n1 [3-Amino-1,2,4-triazole] | susceptible | –
Cc1cc(O)cc(C)c1Cl [4-Chloro-3,5-dimethyl-phenol] | susceptible | –
O=c1cc(O)c2ccccc2o1 [4-Hydroxycoumarin] | susceptible | –
Cc1ccc2c(Cl)cc(Cl)c(O)c2n1 [5,7-Dichloro-8-hydroxyquinaldine] | susceptible | –
Oc1c(Cl)cc(Cl)c2cccnc12 [5,7-Dichloro-8-hydroxyquinoline] | susceptible | –
Oc1c(I)cc(Cl)c2cccnc12 [5-Chloro-7-iodo-8-hydroxy-quinoline] | susceptible | –
C[C@H]1O[C@@H](n2cc(F)c(=O)[nH]c2=O)[C@H](O)[C@@H]1O [5-Fluoro-5′-deoxyuridine] | susceptible | –
O=C(O)c1[nH]c(=O)[nH]c(=O)c1F [5-Fluoroorotic acid] | susceptible | –
O=c1[nH]cc(F)c(=O)[nH]1 [5-Fluorouracil] | susceptible | –
NC(=O)NN=Cc1ccc([N+](=O)[O-])o1 [5-Nitro-2-furaldehyde semicarbazone] | susceptible | –
O.Sc1ncnc2nc[nH]c12 [6-Mercaptopurine monohydrate] | susceptible | –
Oc1cccc2cccnc12 [8-Hydroxyquinoline] | – | susceptible
CCCCC(CC)CNC(=N)NC(=N)NCCCCCCNC(=N)NC(=N)NCC(CC)CCCC (stereo not shown) [Alexidine] | susceptible | –
CN(C)CCC=C1c2ccccc2CCc2ccccc21 [Amitriptyline] | susceptible | –

Compound | H491 susceptible to compound [1] | H491 susceptible to compound
CC1(C)S[C@@H]2[C@H](NC(=O)[C@H](N)c3ccc(O)cc3)C(=O)N2[C@H]1C(=O)O [Amoxicillin] | susceptible | –
[Cl][Sb]([Cl])[Cl] [Antimony (III) chloride] | susceptible | –
CN[C@@H]1[C@@H](O[C@H]2O[C@H](CO)[C@@H](N)[C@H](O)[C@H]2O)OC2C[C@@H](N)[C@@H](O[C@H]3[C@H](O)[C@@H](O)[C@H](N)C[C@@H]3N)OC2[C@@H]1O (stereo partly shown) [Apramycin] | susceptible | –
CN1[C@@H]2CC[C@H]1C[C@@H](OC(=O)C(CO)c1ccccc1)C2 (stereo partly shown) [Atropine] | – | susceptible
CC1(C)S[C@@H]2[C@H](NC(=O)[C@H](NC(=O)N3CCNC3=O)c3ccccc3)C(=O)N2[C@H]1C(=O)O [Azlocillin] | susceptible | –
CC(C)(C)CC(C)(C)c1ccc(OCCOCC[N+](C)(C)Cc2ccccc2)cc1 [Benzethonium Chloride] | susceptible | –
OB(O)O [Boric acid] | susceptible | –
[Cl][Cd][Cl] [Cadmium chloride] | susceptible | –
Cn1c(=O)c2c(ncn2C)n(C)c1=O [Caffeine] | susceptible | –
O=C1C2CC=CCC2C(=O)N1SC(Cl)(Cl)Cl (stereo not shown) [Captan] | susceptible | –
CC1(C)S[C@@H]2[C@H](NC(=O)C(C(=O)O)c3ccccc3)C(=O)N2[C@H]1C(=O)O (stereo partly shown) [Carbenicillin] | susceptible | –
N#CC(C#N)=NNc1cccc(Cl)c1 [Carbonyl-cyanide m-chlorophenylhydrazone] | susceptible | –
Cc1nnc(SCC2=C(C(=O)O)N3C(=O)[C@@H](NC(=O)Cn4cnnn4)[C@H]3SC2)s1 [Cefazolin] | susceptible | –
CO[C@@]1(NC(=O)Cc2cccs2)C(=O)N2C(C(=O)O)=C(COC(N)=O)CS[C@@H]21 [Cefoxitin] | susceptible | –
NC(=O)c1cc[n+](CC2=C(C(=O)O)N3C(=O)[C@@H](NC(=O)[C@@H](c4ccccc4)S(=O)(=O)[O-])[C@H]3SC2)cc1 [Cefsulodin] | susceptible | –
CC(=O)OCC1=C(C(=O)O)N2C(=O)[C@@H](NC(=O)Cc3cccs3)[C@H]2SC1 [Cephalothin] | susceptible | –
[Cl-].[Cs+] [Cesium chloride] | susceptible | –
O=C(O)CCCc1ccc(N(CCCl)CCCl)cc1 [Chlorambucil] | susceptible | –
CC(=O)O.CC(=O)O.NC(=N\CCCCCC/N=C(N)/N=C(\N)Nc1ccc(Cl)cc1)/N=C(\N)Nc1ccc(Cl)cc1 [Chlorhexidine diacetate] | susceptible | –
CN(C)CCCN1c2ccccc2Sc2ccc(Cl)cc21 [Chlorpromazine] | susceptible | –
CCn1nc(C(=O)O)c(=O)c2cc3c(cc21)OCO3 [Cinoxacin] | susceptible | –
Cc1onc(-c2ccccc2Cl)c1C(=O)N[C@@H]1C(=O)N2[C@@H]1SC(C)(C)[C@@H]2C(=O)O [Cloxacillin] | susceptible | –
[Cl-].[Cl-].[Co+2] [Cobalt (II) chloride] | susceptible | –
CN(C)c1ccc(C(=C2C=CC(=[N+](C)C)C=C2)c2ccc(N(C)C)cc2)cc1 [Crystal violet] | susceptible | –

Compound | H491 susceptible to compound [1] | H491 susceptible to compound
N[C@@H]1CONC1=O [D-Cycloserine] | susceptible | –
N[C@H](CO)C(=O)O [D-Serine] | susceptible | –
CN(C)[C@@H]1C(O)=C(C(N)=O)C(=O)[C@@]2(O)C(O)=C3C(=O)c4c(O)ccc(Cl)c4[C@@H](O)[C@H]3C[C@@H]12 [Demeclocycline] | susceptible | –
CN(C)C(=O)/N=N/C(=O)N(C)C [Diamide] | susceptible | –
CN(C)S(=O)(=O)N(SC(F)(Cl)Cl)c1ccccc1 [Dichlofluanid] | susceptible | –
CCCCCCCCCCCC[N+](C)(C)C.[Br-] [Dodecyltrimethyl ammonium bromide] | susceptible | –
CCCCCCCCCCCC[N+](C)(C)CCOc1ccccc1 [Domiphen bromide] | susceptible | –
O=C(O)CN(CCN(CC(=O)O)CC(=O)O)CC(=O)O [EDTA] | – | susceptible
CCn1cc(C(=O)O)c(=O)c2cc(F)c(N3CCNCC3)nc21 [Enoxacin] | susceptible | –
O=C(O)CN(CCOCCOCCN(CC(=O)O)CC(=O)O)CC(=O)O [Ethylene Glycol-bis(b-Aminoethyl ether)-N,N,N′,N′-Tetraacetic Acid] | susceptible | –
N#CC(C#N)=NNc1ccc(OC(F)(F)F)cc1 [FCCP] | susceptible | –
O=C1OC(CN2CCOCC2)CN1/N=C/c1ccc([N+](=O)[O-])o1 (stereo not shown) [Furaltadone] | susceptible | –
CC(=O)O[C@H]1C[C@@]2(C)[C@@H](C[C@@H](O)[C@H]3[C@@]4(C)CC[C@@H](O)[C@@H](C)[C@@H]4CC[C@@]32C)/C1=C(\CCC=C(C)C)C(=O)O [Fusidic acid, sodium salt] | susceptible | –
O=C(O)c1cc(O)c(O)c(O)c1 [Gallic acid] | susceptible | –
NCC(=O)NO [Glycine hydroxamate] | susceptible | –
N=C(N)N [Guanidine hydrochloride] | susceptible | –
Oc1c(Cl)cc(Cl)c(Cl)c1Cc1c(O)c(Cl)cc(Cl)c1Cl [Hexachlorophene] | susceptible | –
N.N.N.N.N.N.[Cl-].[Cl-].[Cl-].[Co+3] [Hexamine cobalt (III) chloride] | susceptible | –
NC(=O)NO [Hydroxyurea] | susceptible | –
O=C(O)CI [Iodoacetic acid] | – | susceptible
CO[C@@H]1[C@@H](O[C@@H]2O[C@H](C)[C@@H](O[C@H]3C[C@@](C)(O)[C@@H](OC(=O)CC(C)C)[C@H](C)O3)[C@H](N(C)C)[C@H]2O)[C@@H](CC=O)C[C@@H](C)[C@@H](O)/C=C/C=C/C[C@@H](C)OC(=O)C[C@H]1OC(C)=O [Josamycin] | susceptible | –
CC(C(=O)O)c1cccc(C(=O)c2ccccc2)c1 (stereo not shown) [Ketoprofen] | susceptible | –
